Reference: patent US20260070945A1, “MACROCYCLIC IMMUNOMODULATORS” (Bristol-Myers Squibb Company, priority 2022, published 2026)
Where a SMILES comes first, the peptide text is derived from it. Bridges are numbered along the chain shown (N, C = ends). [ ]: non-standard residue; d: D form. The star is where a group is joined. ξ: configuration not given here. Phe(4-CH2CH2COOH) = N[C@@H](Cc1ccc(CCC(=O)O)cc1)C(=O)O; Phe(3-CF3) = N[C@@H](Cc1cccc(C(F)(F)F)c1)C(=O)O; Phe(4-CF3) = N[C@@H](Cc1ccc(C(F)(F)F)cc1)C(=O)O; Phe(4-COOH) = N[C@@H](Cc1ccc(C(=O)O)cc1)C(=O)O; Bip = N[C@@H](Cc1ccc(-c2ccccc2)cc1)C(=O)O; NH(CH2)14COOH = O=C(O)CCCCCCCCCCCCCCN*; Phe(3-Me) = Cc1cccc(C[C@H](N)C(=O)O)c1; NH(CH2)12COOH = O=C(O)CCCCCCCCCCCCN*; Val(3-OH) = CC(C)(O)[C@H](N)C(=O)O; Cha = N[C@@H](CC1CCCCC1)C(=O)O; Thr(3ξ) = CC(O)[C@H](N)C(=O)O; dDab = NCC[C@@H](N)C(=O)O; Carboxymethyl = O=C(O)C*; NMeA = CN[C@@H](C)C(=O)O; Dab = NCC[C@H](N)C(=O)O; AEEA = NCCOCCOCC(=O)O

target: T1, PD-1/PD-L1 interaction (PE-labeled human PD-L1-Ig binding to Jurkat cell line over-expressing human PD-1) (Homo sapiens, UniProt Q15116); assay: Jurkat-PD-1 Cell Binding High-Content Screening Assay (CBA); conditions: PE-labeled PD-L1-Ig 20 nM final, Jurkat-hPD-1 cells; read-out: Jurkat HPD1 PDL1 IC50
T1 construct: expressed in transfected cells; host or cells: Jurkat
Procedure, shortened: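 Jurkat-hPD-1 cells (8×10^3/well) in DMEM with 10% fetal calf serum were preincubated with compound for 2 h at 37 °C. PE-labeled PD-L1-Ig was then added at 20 nM final for 1 h. Cells were fixed in paraformaldehyde with Hoechst 33342, washed and imaged by high-content imaging.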

T1 sequence (Q15116 25-288): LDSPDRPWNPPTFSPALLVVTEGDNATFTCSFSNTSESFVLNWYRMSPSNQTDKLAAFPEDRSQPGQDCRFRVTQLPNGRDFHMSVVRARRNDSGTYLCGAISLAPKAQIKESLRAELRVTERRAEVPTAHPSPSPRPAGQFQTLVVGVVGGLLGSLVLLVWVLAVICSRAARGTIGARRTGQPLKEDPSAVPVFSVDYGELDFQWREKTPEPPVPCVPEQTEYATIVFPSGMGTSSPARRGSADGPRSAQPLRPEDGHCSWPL

**Q.** With Cc1cccc(C[C@@H]2NC(=O)[C@H](CC(=O)O)NC(=O)[C@H](Cc3ccc(OCC(=O)O)cc3)NC(=O)[C@H](C(C)O)NC(=O)CSC[C@@H](C(=O)N[C@@H](CCN)C(=O)NCCOCCOCC(=O)NCCCCCCCCCCCCCCC(=O)O)NC(=O)[C@H](CCC(=O)O)NC(=O)[C@H](C(C)C)NC(=O)[C@H](CC3CCCCC3)NC(=O)[C@H](CCN)NC(=O)[C@@H](CC(C)C)NC(=O)[C@H](C)N(C)C(=O)[C@H](Cc3ccc(OCC(=O)O)cc3)NC(=O)[C@H](Cc3ccc(-c4ccccc4)cc3)NC(=O)[C@H](Cc3ccc(C(=O)O)cc3)NC2=O)c1 (stereo partly drawn) [Example 2603] ({CH2CO}-[Thr(3ξ)]Y(Carboxymethyl)D[Phe(3-Me)][Phe(4-COOH)][Bip]Y(Carboxymethyl)[NMeA][dL][Dab][Cha]VEC[Dab][AEEA]-{NH(CH2)14COOH}; thioether N-14) as the molecule, how does the IC50 read?
**A.** 405 nM

**Q.** How did the IC50 turn out when CC(C)C[C@H]1NC(=O)[C@H](C)N(C)C(=O)[C@H](Cc2ccc(C(=O)O)cc2)NC(=O)[C@H](Cc2ccc(-c3ccccc3)cc2)NC(=O)[C@H](Cc2ccc(C(=O)O)cc2)NC(=O)[C@H](Cc2cccc(C(F)(F)F)c2)NC(=O)[C@H](CC(=O)O)NC(=O)[C@H](Cc2ccc(C(=O)O)cc2)NC(=O)[C@H](C(C)O)NC(=O)CSC[C@@H](C(=O)N[C@H](CCN)C(=O)NCCOCCOCC(=O)NCCCCCCCCCCCCC(=O)O)NC(=O)[C@H](CC(=O)O)NC(=O)[C@H](C(C)C)NC(=O)[C@H](CC2CCCCC2)NC(=O)[C@H](CCN)NC1=O (stereo partly drawn) [Example 2604] ({CH2CO}-[Thr(3ξ)][Phe(4-COOH)]D[Phe(3-CF3)][Phe(4-COOH)][Bip][Phe(4-COOH)][NMeA][dL][Dab][Cha]VDC[dDab][AEEA]-{NH(CH2)12COOH}; thioether N-14) was run?
**A.** 428 nM

**Q.** With CC(C)C[C@H]1NC(=O)[C@H](C)N(C)C(=O)[C@H](Cc2ccc(C(=O)O)cc2)NC(=O)[C@H](Cc2ccc(-c3ccccc3)cc2)NC(=O)[C@H](Cc2ccc(C(=O)O)cc2)NC(=O)[C@H](Cc2cccc(C(F)(F)F)c2)NC(=O)[C@H](CC(=O)O)NC(=O)[C@H](Cc2ccc(C(=O)O)cc2)NC(=O)[C@H](C(C)O)NC(=O)CSC[C@@H](C(=O)N[C@@H](CCN)C(=O)NCCOCCOCC(=O)NCCCCCCCCCCCCCCC(=O)O)NC(=O)[C@H](CC(=O)O)NC(=O)[C@H](C(C)C)NC(=O)[C@H](CC2CCCCC2)NC(=O)[C@H](CCN)NC1=O (stereo partly drawn) [Example 2605] ({CH2CO}-[Thr(3ξ)][Phe(4-COOH)]D[Phe(3-CF3)][Phe(4-COOH)][Bip][Phe(4-COOH)][NMeA][dL][Dab][Cha]VDC[Dab][AEEA]-{NH(CH2)14COOH}; thioether N-14) as the molecule, how does the IC50 read?
**A.** 615 nM

**Q.** With CC(=O)NCCCC[C@@H]1NC(=O)[C@H](C(C)(C)O)NC(=O)[C@H](CC2CCCCC2)NC(=O)[C@H](CCN)NC(=O)[C@@H](CC(C)C)NC(=O)[C@H](C)N(C)C(=O)[C@H](CCC(N)=O)NC(=O)[C@H](Cc2ccc(-c3ccccc3)cc2)NC(=O)[C@H](Cc2ccc(C(=O)O)cc2)NC(=O)[C@H](Cc2cccc(C(F)(F)F)c2)NC(=O)[C@H](CC(=O)O)NC(=O)[C@H](Cc2ccc(OCC(=O)O)cc2)NC(=O)[C@H](Cc2ccc(OCC(=O)O)cc2)NC(=O)CSC[C@@H](C(=O)N[C@@H](CCN)C(=O)NCCCCCCCCCCCCCCC(=O)O)NC1=O [Example 2606] ({CH2CO}-Y(Carboxymethyl)Y(Carboxymethyl)D[Phe(3-CF3)][Phe(4-COOH)][Bip]Q[NMeA][dL][Dab][Cha][Val(3-OH)]K(Ac)C[Dab]-{NH(CH2)14COOH}; thioether N-14) as the molecule, how does the IC50 read?
**A.** 48.9 nM

**Q.** CC(=O)NCCCC[C@@H]1NC(=O)[C@H](C(C)(C)O)NC(=O)[C@H](CC2CCCCC2)NC(=O)[C@H](CCN)NC(=O)[C@@H](CC(C)C)NC(=O)[C@H](C)N(C)C(=O)[C@H](CCC(N)=O)NC(=O)[C@H](Cc2ccc(-c3ccccc3)cc2)NC(=O)[C@H](Cc2ccc(CCC(=O)O)cc2)NC(=O)[C@H](Cc2cccc(C(F)(F)F)c2)NC(=O)[C@H](CC(=O)O)NC(=O)[C@H](Cc2ccc(OCC(=O)O)cc2)NC(=O)[C@H](Cc2ccc(OCC(=O)O)cc2)NC(=O)CSC[C@@H](C(=O)N[C@@H](CCN)C(=O)NCCCCCCCCCCCCCCC(=O)O)NC1=O [Example 2607] ({CH2CO}-Y(Carboxymethyl)Y(Carboxymethyl)D[Phe(3-CF3)][Phe(4-CH2CH2COOH)][Bip]Q[NMeA][dL][Dab][Cha][Val(3-OH)]K(Ac)C[Dab]-{NH(CH2)14COOH}; thioether N-14) was tested. Which IC50 did it give?
**A.** 35.1 nM

**Q.** Which IC50 does the source give for CC(=O)NCCCC[C@@H]1NC(=O)[C@H](C(C)(C)O)NC(=O)[C@H](CC2CCCCC2)NC(=O)[C@H](CCN)NC(=O)[C@@H](CC(C)C)NC(=O)[C@H](C)N(C)C(=O)[C@H](CCC(N)=O)NC(=O)[C@H](Cc2ccc(-c3ccccc3)cc2)NC(=O)[C@H](Cc2ccc(C(=O)O)cc2)NC(=O)[C@H](Cc2cccc(C(F)(F)F)c2)NC(=O)[C@H](CC(=O)O)NC(=O)[C@H](Cc2ccc(OCC(=O)O)cc2)NC(=O)[C@H](Cc2ccc(OCC(=O)O)cc2)NC(=O)CSC[C@@H](C(=O)N[C@@H](CCN)C(=O)NCCOCCOCC(=O)NCCOCCOCC(=O)NCCCCCCCCCCCCCCC(=O)O)NC1=O [Example 2608] ({CH2CO}-Y(Carboxymethyl)Y(Carboxymethyl)D[Phe(3-CF3)][Phe(4-COOH)][Bip]Q[NMeA][dL][Dab][Cha][Val(3-OH)]K(Ac)C[Dab][AEEA][AEEA]-{NH(CH2)14COOH}; thioether N-14) here?
**A.** 168 nM

**Q.** How did the IC50 turn out when CC(=O)NCCCC[C@@H]1NC(=O)[C@H](C(C)(C)O)NC(=O)[C@H](CC2CCCCC2)NC(=O)[C@H](CCN)NC(=O)[C@@H](CC(C)C)NC(=O)[C@H](C)N(C)C(=O)[C@H](CCC(N)=O)NC(=O)[C@H](Cc2ccc(-c3ccccc3)cc2)NC(=O)[C@H](Cc2ccc(C(=O)O)cc2)NC(=O)[C@H](Cc2cccc(C(F)(F)F)c2)NC(=O)[C@H](CC(=O)O)NC(=O)[C@H](Cc2ccc(OCC(=O)O)cc2)NC(=O)[C@H](Cc2ccc(C(F)(F)F)cc2)NC(=O)CSC[C@@H](C(=O)N[C@@H](CCN)C(=O)NCCOCCOCC(=O)NCCOCCOCC(=O)NCCCCCCCCCCCCCCC(=O)O)NC1=O [Example 2610] ({CH2CO}-[Phe(4-CF3)]Y(Carboxymethyl)D[Phe(3-CF3)][Phe(4-COOH)][Bip]Q[NMeA][dL][Dab][Cha][Val(3-OH)]K(Ac)C[Dab][AEEA][AEEA]-{NH(CH2)14COOH}; thioether N-14) was run?
**A.** 350 nM

**Q.** Which IC50 does the source give for CC(=O)NCCCC[C@@H]1NC(=O)[C@H](C(C)(C)O)NC(=O)[C@H](CC2CCCCC2)NC(=O)[C@H](CCN)NC(=O)[C@@H](CC(C)C)NC(=O)[C@H](C)N(C)C(=O)[C@H](CCC(N)=O)NC(=O)[C@H](Cc2ccc(-c3ccccc3)cc2)NC(=O)[C@H](Cc2ccc(C(=O)O)cc2)NC(=O)[C@H](Cc2cccc(C(F)(F)F)c2)NC(=O)[C@H](CC(=O)O)NC(=O)[C@H](Cc2ccc(OCC(=O)O)cc2)NC(=O)[C@H](Cc2ccc(C(F)(F)F)cc2)NC(=O)CSC[C@@H](C(=O)N[C@@H](CCN)C(=O)NCCOCCOCC(=O)NCCCCCCCCCCCCC(=O)O)NC1=O [Example 2611] ({CH2CO}-[Phe(4-CF3)]Y(Carboxymethyl)D[Phe(3-CF3)][Phe(4-COOH)][Bip]Q[NMeA][dL][Dab][Cha][Val(3-OH)]K(Ac)C[Dab][AEEA]-{NH(CH2)12COOH}; thioether N-14) here?
**A.** 60 nM

**Q.** With CC(C)C[C@H]1NC(=O)[C@H](C)N(C)C(=O)[C@H](Cc2ccc(C(=O)O)cc2)NC(=O)[C@H](Cc2ccc(-c3ccccc3)cc2)NC(=O)[C@H](Cc2ccc(C(=O)O)cc2)NC(=O)[C@H](Cc2cccc(C(F)(F)F)c2)NC(=O)[C@H](CC(=O)O)NC(=O)[C@H](Cc2ccc(C(=O)O)cc2)NC(=O)[C@H](C(C)O)NC(=O)CSC[C@@H](C(=O)N[C@@H](CCN)C(=O)NCCOCCOCC(=O)NCCCCCCCCCCCCC(=O)O)NC(=O)[C@H](CC(=O)O)NC(=O)[C@H](C(C)C)NC(=O)[C@H](CC2CCCCC2)NC(=O)[C@H](CCN)NC1=O (stereo partly drawn) [Example 2612] ({CH2CO}-[Thr(3ξ)][Phe(4-COOH)]D[Phe(3-CF3)][Phe(4-COOH)][Bip][Phe(4-COOH)][NMeA][dL][Dab][Cha]VDC[Dab][AEEA]-{NH(CH2)12COOH}; thioether N-14) as the molecule, how does the IC50 read?
**A.** 62.9 nM

**Q.** For CC(C)C[C@H]1NC(=O)[C@H](C)N(C)C(=O)[C@H](Cc2ccc(C(=O)O)cc2)NC(=O)[C@H](Cc2ccc(-c3ccccc3)cc2)NC(=O)[C@H](Cc2ccc(C(=O)O)cc2)NC(=O)[C@H](Cc2cccc(C(F)(F)F)c2)NC(=O)[C@H](CC(=O)O)NC(=O)[C@H](Cc2ccc(C(=O)O)cc2)NC(=O)[C@H](C(C)O)NC(=O)CSC[C@@H](C(=O)N[C@@H](CCN)C(=O)NCCOCCOCC(=O)NCCOCCOCC(=O)NCCCCCCCCCCCCCCC(=O)O)NC(=O)[C@H](CCC(=O)O)NC(=O)[C@H](C(C)C)NC(=O)[C@H](CC2CCCCC2)NC(=O)[C@H](CCN)NC1=O (stereo partly drawn) [Example 2613] ({CH2CO}-[Thr(3ξ)][Phe(4-COOH)]D[Phe(3-CF3)][Phe(4-COOH)][Bip][Phe(4-COOH)][NMeA][dL][Dab][Cha]VEC[Dab][AEEA][AEEA]-{NH(CH2)14COOH}; thioether N-14), which IC50 is on record?
**A.** 383 nM

**Q.** How did the IC50 turn out when CC(C)C[C@H]1NC(=O)[C@H](C)N(C)C(=O)[C@H](CCC(N)=O)NC(=O)[C@H](Cc2ccc(-c3ccccc3)cc2)NC(=O)[C@H](Cc2ccc(C(=O)O)cc2)NC(=O)[C@H](Cc2cccc(C(F)(F)F)c2)NC(=O)[C@H](CC(=O)O)NC(=O)[C@H](Cc2ccc(OCC(=O)O)cc2)NC(=O)[C@H](Cc2ccc(OCC(=O)O)cc2)NC(=O)CSC[C@@H](C(=O)N[C@@H](CCN)C(=O)NCCOCCOCC(=O)NCCOCCOCC(=O)NCCCCCCCCCCCCCCC(=O)O)NC(=O)[C@H](CO)NC(=O)[C@H](C(C)(C)O)NC(=O)[C@H](CC2CCCCC2)NC(=O)[C@H](CCN)NC1=O [Example 2614] ({CH2CO}-Y(Carboxymethyl)Y(Carboxymethyl)D[Phe(3-CF3)][Phe(4-COOH)][Bip]Q[NMeA][dL][Dab][Cha][Val(3-OH)]SC[Dab][AEEA][AEEA]-{NH(CH2)14COOH}; thioether N-14) was run?
**A.** 190 nM
